# Reference: BindingDB's records for doi:10.1007/pl00005288 (King'S College London, 1998)
# Target: T1, Melatonin receptor type 1B (Gallus gallus, UniProt P51050)
# T1 sequence (P51050 whole entry): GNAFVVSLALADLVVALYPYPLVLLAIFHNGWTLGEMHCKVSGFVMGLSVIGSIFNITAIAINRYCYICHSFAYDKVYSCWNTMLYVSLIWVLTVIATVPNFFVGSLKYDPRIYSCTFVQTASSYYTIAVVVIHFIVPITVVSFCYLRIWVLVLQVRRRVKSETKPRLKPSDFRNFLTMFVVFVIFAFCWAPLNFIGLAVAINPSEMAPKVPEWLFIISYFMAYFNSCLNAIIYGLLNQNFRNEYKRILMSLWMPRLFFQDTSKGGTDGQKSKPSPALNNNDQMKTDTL
row,Ki,Compound
1,1950 nM,"CCC(=O)NCCc1c(Cc2ccccc2)[nH]c2ccccc12 [Luzindole,N-propanoyl]"
2,933 nM,"CCCCC(=O)NCCc1c(Cc2ccccc2)[nH]c2ccccc12 [Luzindole,N-pentanoyl]"
3,776 nM,"CCCCCC(=O)NCCc1c(Cc2ccccc2)[nH]c2ccc(OC)cc12 [Luzindole,5-MeOT-N-hexanyl]"
4,6460 nM,"CCCCCC(=O)NCCc1c(Cc2ccccc2)[nH]c2ccccc12 [Luzindole,N-hexanoyl]"
5,1740 nM,CC(=O)NCCc1c(Cc2ccccc2)[nH]c2ccccc12 [CAS_117946-91-5]
6,> 10000 nM,"CCCC(=O)NCCc1c(Cc2ccccc2)[nH]c2ccccc12 [Luzindole,N-butanoyl]"

# Target: T2, Melatonin receptor type 1B (Homo sapiens, UniProt P49286)
# T2 sequence (P49286 whole entry): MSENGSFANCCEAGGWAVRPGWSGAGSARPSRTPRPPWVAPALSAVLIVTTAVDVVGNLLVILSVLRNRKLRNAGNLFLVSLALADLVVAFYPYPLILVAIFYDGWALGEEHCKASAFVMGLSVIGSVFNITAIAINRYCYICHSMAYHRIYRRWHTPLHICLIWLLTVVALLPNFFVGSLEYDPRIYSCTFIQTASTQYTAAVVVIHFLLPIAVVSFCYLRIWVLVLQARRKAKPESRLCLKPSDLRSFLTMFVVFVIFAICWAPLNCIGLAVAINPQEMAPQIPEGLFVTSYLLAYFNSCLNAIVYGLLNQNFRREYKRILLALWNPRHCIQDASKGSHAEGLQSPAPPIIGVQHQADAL
row,Ki,Compound
1,22.9 nM,"CCC(=O)NCCc1c(Cc2ccccc2)[nH]c2ccccc12 [Luzindole,N-propanoyl]"
2,9.33 nM,"CCCCC(=O)NCCc1c(Cc2ccccc2)[nH]c2ccccc12 [Luzindole,N-pentanoyl]"
3,324 nM,"CCCCCC(=O)NCCc1c(Cc2ccccc2)[nH]c2ccc(OC)cc12 [Luzindole,5-MeOT-N-hexanyl]"
4,7080 nM,"CCCCCC(=O)NCCc1c(Cc2ccccc2)[nH]c2ccccc12 [Luzindole,N-hexanoyl]"
5,26.9 nM,CC(=O)NCCc1c(Cc2ccccc2)[nH]c2ccccc12 [CAS_117946-91-5]
6,1320 nM,"CCCC(=O)NCCc1c(Cc2ccccc2)[nH]c2ccccc12 [Luzindole,N-butanoyl]"

# Target: Melatonin receptor type 1A (Homo sapiens, UniProt P48039)
# Sequence (P48039 whole entry): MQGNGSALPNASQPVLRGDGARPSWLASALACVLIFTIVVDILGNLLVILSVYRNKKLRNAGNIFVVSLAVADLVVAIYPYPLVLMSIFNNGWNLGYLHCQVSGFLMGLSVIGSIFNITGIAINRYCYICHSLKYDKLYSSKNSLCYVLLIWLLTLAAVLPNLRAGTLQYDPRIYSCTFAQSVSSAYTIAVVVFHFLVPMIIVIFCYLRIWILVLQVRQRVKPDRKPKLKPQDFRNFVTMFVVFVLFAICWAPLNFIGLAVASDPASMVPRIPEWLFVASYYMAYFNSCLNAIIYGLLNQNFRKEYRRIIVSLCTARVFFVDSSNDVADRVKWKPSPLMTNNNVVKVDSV
row,Ki,Compound
1,776 nM,"CCC(=O)NCCc1c(Cc2ccccc2)[nH]c2ccccc12 [Luzindole,N-propanoyl]"
2,832 nM,"CCCCC(=O)NCCc1c(Cc2ccccc2)[nH]c2ccccc12 [Luzindole,N-pentanoyl]"
3,339 nM,"CCCCCC(=O)NCCc1c(Cc2ccccc2)[nH]c2ccc(OC)cc12 [Luzindole,5-MeOT-N-hexanyl]"
4,5500 nM,"CCCCCC(=O)NCCc1c(Cc2ccccc2)[nH]c2ccccc12 [Luzindole,N-hexanoyl]"
5,513 nM,CC(=O)NCCc1c(Cc2ccccc2)[nH]c2ccccc12 [CAS_117946-91-5]
6,3020 nM,"CCCC(=O)NCCc1c(Cc2ccccc2)[nH]c2ccccc12 [Luzindole,N-butanoyl]"

# Target: T3, Melatonin receptor type 1C (Xenopus laevis, UniProt P49219)
# T3 sequence (P49219 whole entry): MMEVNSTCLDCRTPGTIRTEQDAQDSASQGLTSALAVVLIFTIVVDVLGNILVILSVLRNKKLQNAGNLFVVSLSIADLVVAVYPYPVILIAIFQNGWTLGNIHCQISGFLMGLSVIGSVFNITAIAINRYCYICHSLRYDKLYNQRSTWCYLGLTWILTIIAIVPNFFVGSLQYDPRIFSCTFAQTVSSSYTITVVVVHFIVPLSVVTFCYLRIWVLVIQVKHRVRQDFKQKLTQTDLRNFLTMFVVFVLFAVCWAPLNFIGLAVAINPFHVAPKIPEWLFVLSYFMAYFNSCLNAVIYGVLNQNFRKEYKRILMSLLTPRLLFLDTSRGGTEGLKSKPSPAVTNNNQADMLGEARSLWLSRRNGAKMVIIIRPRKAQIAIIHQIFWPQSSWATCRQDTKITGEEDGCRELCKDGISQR
row,Ki,Compound
1,3160 nM,"CCC(=O)NCCc1c(Cc2ccccc2)[nH]c2ccccc12 [Luzindole,N-propanoyl]"
2,2140 nM,"CCCCC(=O)NCCc1c(Cc2ccccc2)[nH]c2ccccc12 [Luzindole,N-pentanoyl]"
3,1380 nM,"CCCCCC(=O)NCCc1c(Cc2ccccc2)[nH]c2ccc(OC)cc12 [Luzindole,5-MeOT-N-hexanyl]"
4,5750 nM,"CCCCCC(=O)NCCc1c(Cc2ccccc2)[nH]c2ccccc12 [Luzindole,N-hexanoyl]"
5,2040 nM,CC(=O)NCCc1c(Cc2ccccc2)[nH]c2ccccc12 [CAS_117946-91-5]
6,3800 nM,"CCCC(=O)NCCc1c(Cc2ccccc2)[nH]c2ccccc12 [Luzindole,N-butanoyl]"
